Test results reported in US9938240B2, “Fluorinated derivatives of 3-hydroxypyridin-4-ones” (Apotex Technologies Inc., priority 2009, dated 2018).

Columns and labels:
[1] = tested on: SH-SY5Y human neuroblastoma cells; details: for CC2 (cytotoxic concentration): H2O2-treated cells, viability below 80%; for CC1 (cytotoxic concentration): absence of H2O2, viability below 80%
Excerpt: Hydrogen peroxide (H2O2) is a major ROS (reactive oxidative species), which causes oxidative stress, and can induce apoptosis in many different cell types. One of the CNS drug design strategies is to use compounds with antioxidant properties as a possible treatment of both acute and chronic neurodegenerative diseases (Kang et al. Bioorganic & Medicinal Chemistry Letters, 2004, 14, 2261-2264). This involves testing the compounds of this invention for their protective effect against oxidative stress-induced cell death in SH-SY5Y human neuroblastoma cells. SH-SY5Y human neuroblastoma cells were cultured in DMEM (ATCC)/F12 (Cellgro) with 10% FBS. The cells were plated at 30,000 cells/cm^2 and grown for 1 day in the regular culture media prior to compound addition. Cells were routinely treated with the test compound, at a pre-determined range of concentrations, in the presence or absence of 50 μM hydrogen peroxide in a basal medium containing no FBS for 16-22 h. Cell viability was then measured using the routine MTT method (Mosmann, T., Rapid Colorimetric Assay for Cellular Growth and Survival: Application to Proliferation and Cytotoxicity Assays”. J. Immunol. Meth. 1983, 65, 55-63).
For data analysis, cell viability relative to control not treated with either H2O2 or the test compound, was plotted against the compound concentration. […] Cytotoxicity of the test compound was assessed in the absence of hydrogen peroxide.

[2] = tested on: human neuroblastoma MC-65 cells; assay: cells; details: for EC100 / minimal effective concentration: Homo sapiens, MC65, 48 h; for EC100: read-out: EC100 (maximum effective concentration); for minimal effective concentration: read-out: TH (threshold protective concentration); for CC2 (cytotoxic concentration): MC-65, cultured without tetracycline; for CC2 (cytotoxic concentration) / CC1 (cytotoxic concentration): viability below 80%; for CC1 (cytotoxic concentration): MC-65, presence of TET
Protocol: In this assay, human neuroblastoma cells (MC-65 cells) are genetically engineered to conditionally express amyloid β peptide (Aβ). The Aβ production is suppressed by tetracycline (TET+) presence in culture medium, and its production is activated when TET is withdrawn (TET−). The activation of Aβ production results in cell death “MC-65 suicide”.
Protective effect of compounds against edogenously produced amyloid beta (Aβ) was assessed in human neuroblastoma MC-65 cells. MC-65 cells have been stably transformed to conditionally express high levels of a partial amyloid precursor (AP) fusion protein (Bryce Sopher et al., Brain Res Mol Brain Res. 1994, 207-17.). This protein is further proteolitically processed in the cells to form a set of AP-derived Aβ peptides. […] Activity of the promoter is tightly regulated by the presence of the antibiotic tetracycline (TET) in the culture medium. In the presence of TET (TET+), the promoter is in the basal state and no amyloid beta peptide is synthesized. In the absence of TET (TET−) the promoter is in induced state, resulting in the accumulation of Aβ peptides in the cells, degenerative changes in cell morphology and decreased survival.
Transfected human neuroblastoma cells (MC-65) were cultured in DMEM (ATCC) supplemented with non-essential amino acids and 10% FBS (VWR) in the presence of TET (1 μg/mL). For the experiment, the cells were plated at 35,000 cells/cm^2 and grown for 1 day in the regular culture media prior to compound addition. On the day of the assay, culture supernatant was removed from the wells and cells were thoroughly washed once with the compound incubation matrix containing no FBS and no TET. MC-65 cells were treated with a test compound at pre-determined range of concentrations in a basal medium containing no FBS and in the absence or presence of 1 μg/mL TET for approximately 48 h. Cell viability was then measured using the MTT method.
For data analysis, cell viabilities relative to the control not treated with a test compound and maintained in the presence of TET were plotted against the compound concentration. […] Cytotoxicity of the test compound was assessed in the cells maintained in the presence of TET.

Row | Structure (SMILES) | CC2 (cytotoxic concentration) [1] [µM] | CC1 (cytotoxic concentration) [1] [µM] | EC100 [2] [µM] | minimal effective concentration [2] [µM] | CC2 (cytotoxic concentration) [2] [µM] | CC1 (cytotoxic concentration) [2] [µM]
1 | Cc1cc(=O)c(O)cn1CC(F)(F)F [Apo6994, 5-hydroxy-2-methyl-1-(2,2,2-trifluoroethyl)pyridin-4(1H)-one] | 640 | 160 | 10 | 1 | >80 | >80
2 | CNC(=O)[C@@H](C)NC(c1c(O)c(=O)ccn1C)C(F)(F)F (stereo partly drawn) [Apo6998, N-methyl-N2-[2,2,2-trifluoro-1-(3-hydroxy-1-methyl-4-oxo-1,4-dihydropyridin-2-yl)ethyl]-D-alaninamide] | 100 | 20 |  |  |  | 
3 | CN(C)Cc1cc(=O)c(O)c(CC(F)(F)F)n1C [Apo7021, 6-[(dimethylamino)methyl]-3-hydroxy-1-methyl-2-(2,2,2-trifluoroethyl)pyridin-4(1H)-one] | >640 | 80 | 10 | 0.1 | 20 | 10
4 | CN(C)Cc1cc(=O)c(O)c(C(O)C(F)(F)F)n1C (centres unmarked) [Apo7022, 6-[(dimethylamino)methyl]-3-hydroxy-1-methyl-2-(2,2,2-trifluoro-1-hydroxyethyl)pyridin-4(1H)-one] | 320 | 40 | 20 | 0.1 | 40 | 10
5 | C[C@H](NCc1cc(=O)c(O)c(C(O)C(F)(F)F)n1C)C(=O)O (stereo partly drawn) [Apo7032, N-{[5-hydroxy-1-methyl-4-oxo-6-(2,2,2-trifluoro-1-hydroxyethyl)-1,4-dihydropyridin-2-yl]methyl}-L-alanine] | >640 | 10 | 10 | 0.1 | 40 | 80
6 | CNC(=O)[C@H](C)NCc1cc(=O)c(O)c(C(O)C(F)(F)F)n1C (stereo partly drawn) [Apo7033, N-2-{[5-hydroxy-1-methyl-4-oxo-6-(2,2,2-trifluoro-1-hydroxyethyl)-1,4-dihydropyridin-2-yl]methyl}-N-methyl-L-alaninamide] | >640 | 40 |  |  |  | 
7 | Cc1c(Cl)c(=O)c(O)c(C(O)C(F)(F)F)n1C (centres unmarked) [Apo7038, 3-chloro-5-hydroxy-1,2-dimethyl-6-(2,2,2-trifluoro-1-hydroxyethyl)pyridin-4(1H)-one] | >640 | 40 |  |  |  | 
8 | Cc1c(O)c(=O)c(C(N2CCCCC2)C(F)(F)F)cn1C (centres unmarked) [Apo7054, 3-Hydroxy-1,2-dimethyl-5-[2,2,2-trifluoro-1-(piperidin-1-yl)ethyl]pyridin-4(1H)-one] | >640 | 5 | 1 | 0.1 | 20 | 20
9 | Cc1c(O)c(=O)c(C(n2ccnc2)C(F)(F)F)cn1C (centres unmarked) [Apo7055, 3-Hydroxy-1,2-dimethyl-5-[2,2,2-trifluoro-1-(1H-imidazol-1-yl)ethyl]pyridin-4(1H)-one] | >640 | 10 | 20 | 1 | 40 | 40
10 | C#CCN(C)C(c1c(O)c(=O)ccn1C)C(F)(F)F (centres unmarked) [Apo7057, 3-hydroxy-1-methyl-2-{2,2,2-trifluoro-1-[methyl(prop-2-yn-1-yl)amino]ethyl}pyridin-4(1H)-one] | 80 | 5 | 10 | 1 | 20 | 20
11 | Cn1ccc(=O)c(O)c1C(N1CCCCC1)C(F)(F)F (centres unmarked) [Apo7058, 3-hydroxy-1-methyl-2-[2,2,2-trifluoro-1-(piperidin-1-yl)ethyl]pyridin-4(1H)-one] | >640 | 20 | 10 | 1 | 80 | 10
12 | Cc1c(Cl)c(=O)c(O)c(C(N(C)C)C(F)(F)F)n1C (centres unmarked) [Apo7059, 3-chloro-6-[1-(dimethylamino)-2,2,2-trifluoroethyl]-5-hydroxy-1,2-dimethylpyridin-4(1H)-one] | 640 | 40 | 10 | 1 | 40 | 10
13 | Cn1cc(Cl)c(=O)c(O)c1C(N1CCCCC1)C(F)(F)F (centres unmarked) [Apo7061, 5-chloro-3-hydroxy-1-methyl-2-[2,2,2-trifluoro-1-(piperidin-1-yl)ethyl]pyridin-4(1H)-one] | 10 | 10 | 10 | 1 | 20 | 40
14 | Cc1c(O)c(=O)c(C(N2CCN(C)CC2)C(F)(F)F)cn1C.Cl (centres unmarked) [Apo7063, 3-Hydroxy-1,2-dimethyl-5-[2,2,2-trifluoro-1-(4-methylpiperazin-1-yl)ethyl]pyridin-4(1H)-one hydrochloride] | >640 | 320 |  |  |  | 
15 | Cc1cc(=O)c(O)c(CN2CCCCC2)n1CC(F)(F)F [Apo7071, 3-hydroxy-6-methyl-2-(piperidin-1-ylmethyl)-1-(2,2,2-trifluoroethyl)pyridin-4(1H)-one] | 80 | 20 | 10 | 1 | 20 | 40
16 | CN1CCN(C(c2c(O)c(=O)ccn2C)C(F)(F)F)CC1 (centres unmarked) [Apo7073, 3-hydroxy-1-methyl-2-[2,2,2-trifluoro-1-(4-methylpiperazin-1-yl)ethyl]pyridin-4(1H)-one] | >640 | 40 | 10 | 0.1 | 20 | 40
17 | Cn1ccc(=O)c(O)c1C(NC1CC1)C(F)(F)F (centres unmarked) [Apo7074, 2-[1-(cyclopropylamino)-2,2,2-trifluoroethyl]-3-hydroxy-1-methylpyridin-4(1H)-one] | >640 | 20 | 10 | 0.1 | 20 | 10
18 | C=CCNC(c1c(O)c(=O)ccn1C)C(F)(F)F (centres unmarked) [Apo7075, 3-hydroxy-1-methyl-2-[2,2,2-trifluoro-1-(prop-2-en-1-ylamino)ethyl]pyridin-4(1H)-one] | >640 | 20 | 10 | 0.1 | 20 | 10
19 | Cn1ccc(=O)c(O)c1C(C(F)F)N1CCN(c2ccccn2)CC1 (centres unmarked) [Apo7316, 2-(2,2-difluoro-1-(4-(pyridin-2-yl)piperazin-1-yl)ethyl)-3-hydroxy-1-methylpyridin-4(1H)-one] | 320 | 320 | 10 | 1 | 20 | 10
